Data as given in patent US6274568A, “Compounds for altering cell surface sialic acids and methods of use therefor” (priority 1999, dated 2001).

System: NG108-15 cells
Experiment: Uptake of mannosamine precursors and conversion to sialic acids (precursor pool, gangliosides, glycoproteins) in NG108-15 cells, HPLC
Type: cell-based, mouse neuroblastoma/rat glioma hybrid
Procedure: Cells were harvested using hypertonic Ca^2+ - and Mg^2+ -free phosphate-buffered saline containing 1 mM EDTA, collected by centrifugation, and homogenized in ice-cold water using a Potter-Elvehjem glass/Teflon homogenizer. Methanol (2.6 volumes) was added, the suspension mixed and brought to ambient temperature, then chloroform (1.3 volumes, based on the original homogenate) was added and the suspension mixed vigorously. The suspension was centrifuged 30 min at 2,000×g. After collecting the supernatant, the pellet (containing precipitated proteins) was resuspended in water or concentrated ammonium hydroxide and a portion was used for protein assay (BCA, Pierce, Rockford, Ill.). The supernatant was partitioned by adjusting the chloroform-methanol-water ratio to 4:8:5.6 by addition of water, mixing thoroughly, and centrifuging as above. The upper phase was collected and a portion was subjected to reverse phase chromatography, using Sep-Pak C18 cartridges (Waters, Milford, Mass.), to isolate gangliosides (Schnaar, Methods Enzymol. 230:371, 1994).
To quantify and identify sialic acids, a portion of resolublized protein, organic/aqueous soluble pool, or reverse-phase purified gangliosides was evaporated to dryness in a 500-μl polypropylene tube and 20 μl of 0.1 M HCl/0.25 M NaCl was added. One Ampliwax bead (Perkin Elmer Corp, Foster City, Calif.) per reaction was added to block evaporation, and the sample hydrolyzed for 3 h at 80° C. Released sialic acids were analyzed by injecting an aliquot (1-10 μl) onto a Dionex high pressure liquid chromatography system (Dionex Corporation, Sunnyvale, Calif.) using a HPIC-AS6 column and a pulsed amperometric detector. Elution solutions were: A, 0.75 mM NaOH; B, 200 mM NaOH; and C, 400 mM sodium acetate in 50 mM NaOH. NeuAc and NeuPr were resolved by elution with 40% A, 50% B, 10% C for 15 min at 1 ml/min. NeuGc was resolved in separate injections using step gradient elution: 0-1.8 min, 18% A, 50% B, 32% C; 2-10 min, 40% B, 60% C. Sialic acids were identified by comparison of their elution time with those of standard NeuAc, NeuPr and NeuGc and were quantified in comparison to a standard curve of commercial NeuAc (for NeuAc and NeuPr) or NeuGc.
To confirm that the quantified peaks represented sialic acids, 10 μl of acid hydrolysates were treated with 1 μl of 1 M sodium phosphate (pH 7.2) and 10 μl of 0.1 M NaOH. Neutralized samples were incubated at 37° C. for 2 h with or without 0.9 U of N-acetylneuraminic acid aldolase (Sigma), 32 μM NADH and 0.1 μg lactate dehydrogenase. Sialic acid content in the ganglioside and glycoprotein fractions is expressed per mg of total cell protein. Precursor pool sialic acid (sialic acid plus CMP-sialic acid) was calculated by subtracting the ganglioside value from the organic/aqueous pool value, both expressed per mg of cell protein.
Sialic acid is biosynthesized from the precursor sugar N-acetylmannosamine (FIG. 2). In the present invention, sialic acids are converted on live neuronal cells from NeuAc, which is a key determinant for MAG binding, to NeuGc, which is non-permissive for MAG binding. A potential NeuGc precursor, N-glycolylmannosamine monoacetate (ManNGcMA, FIG. 1, R1 =H) was tested for its ability to generate altered sialic acids in neuronal and non-neuronal cells. N-propanoylmannosamine (ManNPr) and other N-acyl mannosamine derivatives have been used to modify glycoprotein associated sialic acids to the corresponding N-acylneuraminic acid. N-propanoyl-mannosamine (ManNPr), was used as a positive control. […] Cell pellets were fractioned into lipid associated, protein associated, and intracellular (lipid and cytoplasmic which may consist of oligosaccharide-bound, free, or CMP-activated sialic acid) sialic acids and hydrolyzed to release sialic acid. The hydrolyzed samples were then analyzed by HPLC to determine sialic acid content. […]

[1] = 1 mM, 48 h, listed as ManNGc-OAc
[2] = 1 mM, longer incubation (up to 144 h)

For `CC(=O)OCC(=O)N[C@@H]1C(OC(C)=O)O[C@H](COC(C)=O)[C@@H](OC(C)=O)[C@@H]1OC(C)=O` (stereo partly drawn) [ManNGcPA, N-glycolylmannosamine pentaacetate], the “conversion of ganglioside sialic acids to the NeuGc form” value (0.02 mM, 48 h) was roughly 50%, the “conversion to the NeuGc form relative to 5 mM ManNGcMA” value (0.1 mM ManNGcPA vs 5 mM ManNGcMA, 48 h) was “≈ 2 fold” and the “glycoprotein sialic acids as NeuGc” value (0.1 mM, 48 h) was 19.8%. The “intracellular sialic acid in the form of NeuGc” value (0.1 mM, 48 h) was 20.6%, the “total lipid associated sialic acid as NeuGc” value (0.1 mM, 48 h) was 17% and the “protein sialic acid, average over the experiment (mean±S.D.)” value (0.25 mM) was 3.8±1.2 nmol/mg protein. For the same compound, the “total ganglioside sialic acid, average over the experiment (mean±S.D.)” value (0.25 mM) was 3.2±0.7 nmol/mg total cell protein, the “glycoconjugate sialic acid in the NeuGc form” value (0.25 mM or 1 mM, 96 h) was greater than 70% and the “reversal of the conversion on withdrawal of the precursor” value (0.25 mM, 24 h of chase) was “partial reversal of the conversion”. The “conversion of NeuAc to NeuGc in gangliosides” value (0.25 mM, 48 h) was greater than 70%, the “conversion of NeuAc to NeuGc in glycoproteins” value (0.25 mM, 96 h, relative to >70% in gangliosides) was “a similar conversion in glycoproteins” and the “conversion from NeuAc to NeuGc (precursor pool)” value (1 mM, 48 h) was 82%. For the same compound, the “intracellular sialic acid in the form of NeuGc” value (1.0 mM, 48 h) was 76.6%, the “ganglioside (lipid associated) sialic acid as NeuGc” value [1] was 51.5% and the “glycoprotein (protein associated) sialic acid as NeuGc” value [1] was 47%. The “glycoconjugate sialic acid in the NeuGc form” value (1 mM, 144 h) was 80%, the “ganglioside sialic acid as NeuGc” value [2] was “≈ 80%” and the “glycoprotein sialic acid as NeuGc” value [2] was 60-70%. For the same compound, the “sialic acid precursor pool in the NeuGc form” value (1 mM, within 24 h (remained high up to 144 h)) was greater than 80%, the “sialic acid precursor pool size” value (0.1 or 1.0 mM ManNGcPA, or 5 mM ManNGcMA, 48 h) was “none of these treatments significantly altered the sialic acid precursor pool size” and the “change in lipid or protein associated sialic acid compared to DMSO treated control” value (0.1 or 1.0 mM, 48 h) was “no significant decrease in cell viability, or change in lipid or protein associated sialic acid”. The “total ganglioside sialic acid level” value (0.1 or 1.0 mM, 48 h) was “not significantly altered”, the “total glycoprotein sialic acid level” value (0.1 or 1.0 mM, 48 h) was “not significantly altered” and the “increase in potency due to peracetylation” value (ManNGcPA vs ManNGcMA, 48 h) was 100 fold.
